The values below come from US20260355196A1, “INHIBITORS AND DEGRADERS OF PIP4K PROTEIN” (Larkspur Biosciences, Inc., priority 2023, published 2026).

In general, DC50 refers to the midpoint of the concentration-degradation curve.

In one assay the target is T1, PIP4K2C (Homo sapiens, UniProt Q8TBX8).
T1 sequence (Q8TBX8 1-421): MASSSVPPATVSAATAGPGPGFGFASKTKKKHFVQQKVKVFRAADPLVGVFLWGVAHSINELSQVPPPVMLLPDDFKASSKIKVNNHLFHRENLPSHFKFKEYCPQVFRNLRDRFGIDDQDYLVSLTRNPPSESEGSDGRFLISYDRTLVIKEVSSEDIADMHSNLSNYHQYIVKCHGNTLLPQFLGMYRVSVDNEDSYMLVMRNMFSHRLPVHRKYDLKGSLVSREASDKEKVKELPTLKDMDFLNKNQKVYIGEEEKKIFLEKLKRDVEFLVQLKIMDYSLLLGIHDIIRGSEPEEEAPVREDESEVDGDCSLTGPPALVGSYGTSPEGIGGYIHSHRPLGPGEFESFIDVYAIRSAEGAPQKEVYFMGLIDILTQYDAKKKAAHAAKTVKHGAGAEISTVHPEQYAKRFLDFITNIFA
The assay is described as follows: HiBiT PIP4K2C degradation assay in MOLT-4 cells (endogenous PIP4K2C C-terminally tagged with HiBiT). It counts as cell-based. On the set-up: untagged in primary human PBMCs and monocyte-derived dendritic cells. Particulars: 6 hours of incubation time, rather than 24 hours; MOLT-4, top concentration 10 micromolar; read-out: HiBIT-degradation MOLT4 PIP4k2C DC50 (6 hours, marked *). The essentials: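 Cells are plated onto compound dilutions (10 points, 3-fold, top 10 micromolar) and incubated 24 or 6 hours at 37 C. Lytic HiBiT detection then quantifies tagged endogenous PIP4K2C in MOLT-4, and a Hill fit yields DC50.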
Background: The HiBiT peptide binds its large partner to form an active luciferase.
For the compound `O=C1CCC(Nc2ccc(N3CCC(N4CC5(CC(C(=O)N[C@H]6CC[C@H](Nc7ncc(F)c(-c8cccc(-n9ccccc9=O)c8)n7)CC6)C5)C4)CC3)c(F)c2)C(=O)N1` (stereo partly drawn) [Compound 575, trans-2-(1-(4-((2,6-dioxopiperidin-3-yl)amino)-2-fluorophenyl)piperidin-4-yl)-N-((1r,4r)-4-((5-fluoro-4-(3-(2-oxopyridin-1(2H)-yl)phenyl)pyrimidin-2-yl)amino)cyclohexyl)-2-azaspiro[3.3]heptane-6-carboxamide], the DC50 was under 0.5 µM. For the compound `O=C1CCC(Nc2ccc(C3CCN([C@H]4CC[C@H](C(=O)N[C@H]5CC[C@H](Nc6ncc(F)c(-c7cccc(N8CCCOC8=O)c7)n6)CC5)CC4)CC3)c(F)c2)C(=O)N1` (stereo partly drawn) [Compound 576, trans-(1r,4R)-4-(4-(4-((2,6-dioxopiperidin-3-yl)amino)-2-fluorophenyl)piperidin-1-yl)-N-((1r,4R)-4-((5-fluoro-4-(3-(2-oxo-1,3-oxazinan-3-yl)phenyl)pyrimidin-2-yl)amino)cyclohexyl)cyclohexane-1-carboxamide], the DC50 was under 0.5 µM. Take `O=C1CC[C@@H](Nc2ccc(N3CCC(N4CCC(C(=O)N[C@H]5CC[C@H](Nc6ncc(F)c(-c7cccc(-c8ccc[nH]c8=O)c7)n6)CC5)CC4)CC3)c(F)c2)C(=O)N1` [Compound 577, trans-1′-(4-(((R)-2,6-dioxopiperidin-3-yl)amino)-2-fluorophenyl)-N-((1r,4r)-4-((5-fluoro-4-(3-(2-oxo-1,2-dihydropyridin-3-yl)phenyl)pyrimidin-2-yl)amino)cyclohexyl)-[1,4′-bipiperidine]-4-carboxamide]: the DC50 was over 5 µM. Same read-out and setting: in the case of `O=C1CCC(Nc2ccc(C3CCN(CC4(O)CCN(C(=O)[C@H]5CC[C@H](Nc6ncc(F)c(-c7cccc(N8CCOCC8=O)c7)n6)CC5)CC4)CC3)c(F)c2)C(=O)N1` (stereo partly drawn) [Compound 578, trans-3-((3-fluoro-4-(1-((1-(4-((5-fluoro-4-(3-(3-oxomorpholino)phenyl)pyrimidin-2-yl)amino)cyclohexane-1-carbonyl)-4-hydroxypiperidin-4-yl)methyl)piperidin-4-yl)phenyl)amino)piperidine-2,6-dione] it was under 0.5 µM; in that of `O=C1CCC(Nc2ccc(C3CCN(CC4(O)CCN(C(=O)[C@H]5CC[C@H](Nc6ncc(F)c(-c7cccc(N8CCCCC8=O)c7)n6)CC5)CC4)CC3)c(F)c2)C(=O)N1` (stereo partly drawn) [Compound 579, 3-((3-fluoro-4-(1-((1-(trans-4-((5-fluoro-4-(3-(2-oxopiperidin-1-yl)phenyl)pyrimidin-2-yl)amino)cyclohexane-1-carbonyl)-4-hydroxypiperidin-4-yl)methyl)piperidin-4-yl)phenyl)amino)piperidine-2,6-dione], under 0.5 µM; in that of `O=C1CCC(Nc2ccc(C3CCN(CC4(O)CCN(C(=O)[C@H]5CC[C@H](Nc6ncc(F)c(-c7cccc(N8CCCOC8=O)c7)n6)CC5)CC4)CC3)c(F)c2)C(=O)N1` (stereo partly drawn) [Compound 580, trans-3-((3-fluoro-4-(1-((1-(4-((5-fluoro-4-(3-(2-oxo-1,3-oxazinan-3-yl)phenyl)pyrimidin-2-yl)amino)cyclohexane-1-carbonyl)-4-hydroxypiperidin-4-yl)methyl)piperidin-4-yl)phenyl)amino)piperidine-2,6-dione], under 0.5 µM. Still for that read-out and setting: in the case of `O=C1CCC(Nc2ccc(C3CCN(CC4(O)CCN(C(=O)[C@H]5CC[C@H](Nc6ncc(F)c(-c7cccc(-c8ccc[nH]c8=O)c7)n6)CC5)CC4)CC3)c(F)c2)C(=O)N1` (stereo partly drawn) [Compound 581, 3-((3-fluoro-4-(1-((1-(trans-4-((5-fluoro-4-(3-(2-oxo-1,2-dihydropyridin-3-yl)phenyl)pyrimidin-2-yl)amino)cyclohexane-1-carbonyl)-4-hydroxypiperidin-4-yl)methyl)piperidin-4-yl)phenyl)amino)piperidine-2,6-dione] it was under 0.5 µM. Same read-out and setting: in the case of `O=C1CCC(Nc2ccc(N3CCN(CC4(O)CCN(C(=O)[C@H]5CC[C@H](Nc6ncc(F)c(-c7cccc(N8CCCCC8=O)c7)n6)CC5)CC4)CC3)c(F)c2)C(=O)N1` (stereo partly drawn) [Compound 582, trans-3-((3-fluoro-4-(4-((1-(4-((5-fluoro-4-(3-(2-oxopiperidin-1-yl)phenyl)pyrimidin-2-yl)amino)cyclohexane-1-carbonyl)-4-hydroxypiperidin-4-yl)methyl)piperazin-1-yl)phenyl)amino)piperidine-2,6-dione] it was under 0.5 µM; in that of `O=C1CCC(Nc2ccc(N3CCN(CC4(O)CCN(C(=O)[C@H]5CC[C@H](Nc6ncc(F)c(-c7cccc(N8CCCOC8=O)c7)n6)CC5)CC4)CC3)c(F)c2)C(=O)N1` (stereo partly drawn) [Compound 583, trans-3-((3-fluoro-4-(4-((1-(4-((5-fluoro-4-(3-(2-oxo-1,3-oxazinan-3-yl)phenyl)pyrimidin-2-yl)amino)cyclohexane-1-carbonyl)-4-hydroxypiperidin-4-yl)methyl)piperazin-1-yl)phenyl)amino)piperidine-2,6-dione], under 0.5 µM.

As to `O=C1CCC(Nc2ccc(N3CCN(CC4(O)CCN(C(=O)[C@H]5CC[C@H](Nc6ncc(F)c(-c7cccc(-c8ccc[nH]c8=O)c7)n6)CC5)CC4)CC3)c(F)c2)C(=O)N1` (stereo partly drawn) [Compound 584, trans-3-((3-fluoro-4-(4-((1-(4-((5-fluoro-4-(3-(2-oxo-1,2-dihydropyridin-3-yl)phenyl)pyrimidin-2-yl)amino)cyclohexane-1-carbonyl)-4-hydroxypiperidin-4-yl)methyl)piperazin-1-yl)phenyl)amino)piperidine-2,6-dione], the DC50 is over 5 µM. On the same count and under the same terms, under `O=C1CCC(Nc2ccc(N3CCC(N4CCC(C(=O)N[C@H]5CC[C@H](Nc6ncc(F)c(-c7cccc(N8CCOCC8=O)c7)n6)CC5)CC4)CC3)c(F)c2)C(=O)N1` (stereo partly drawn) [Compound 585, trans-1′-(4-((2,6-dioxopiperidin-3-yl)amino)-2-fluorophenyl)-N-(4-((5-fluoro-4-(3-(3-oxomorpholino)phenyl)pyrimidin-2-yl)amino)cyclohexyl)-[1,4′-bipiperidine]-4-carboxamide] stands under 0.5 µM. Same read-out and setting: in the case of `O=C1CCC(Nc2ccc(N3CCC(N4CCC(C(=O)N[C@H]5CC[C@H](Nc6ncc(F)c(-c7cccc(N8CCCCC8=O)c7)n6)CC5)CC4)CC3)c(F)c2)C(=O)N1` (stereo partly drawn) [Compound 587, 1′-(4-((2,6-dioxopiperidin-3-yl)amino)-2-fluorophenyl)-N-(trans-4-((5-fluoro-4-(3-(2-oxopiperidin-1-yl)phenyl)pyrimidin-2-yl)amino)cyclohexyl)-[1,4′-bipiperidine]-4-carboxamide] it was under 0.5 µM; in that of `O=C1CCC(Nc2ccc(N3CCN(CC4(O)CCN(C(=O)[C@H]5CC[C@H](Nc6ncc(F)c(-c7cccc(N8CCOCC8=O)c7)n6)CC5)CC4)CC3)c(F)c2)C(=O)N1` (some centres unmarked) [Compound 588], under 0.5 µM. On the same count and under the same terms, in the case of `O=C1CCC(Nc2ccc(C3CCN(C[C@H]4CC[C@H](CNC(=O)[C@H]5CC[C@H](Nc6ncc(F)c(-c7cccc(N8CCOCC8=O)c7)n6)CC5)CC4)CC3)c(F)c2)C(=O)N1` (stereo partly drawn) [Compound 589, trans-(1r,4R)—N-(((1r,4R)-4-((4-(4-((2,6-dioxopiperidin-3-yl)amino)-2-fluorophenyl)piperidin-1-yl)methyl)cyclohexyl)methyl)-4-((5-fluoro-4-(3-(3-oxomorpholino)phenyl)pyrimidin-2-yl)amino)cyclohexane-1-carboxamide] it was under 0.5 µM; in that of `O=C1CCC(Nc2ccc(N3CCN(C[C@H]4CC[C@H](CNC(=O)[C@H]5CC[C@H](Nc6ncc(F)c(-c7cccc(N8CCCCC8=O)c7)n6)CC5)CC4)CC3)c(F)c2)C(=O)N1` (stereo partly drawn) [Compound 590, trans-(1r,4R)—N-(((1r,4R)-4-((4-(4-((2,6-dioxopiperidin-3-yl)amino)-2-fluorophenyl)piperazin-1-yl)methyl)cyclohexyl)methyl)-4-((5-fluoro-4-(3-(2-oxopiperidin-1-yl)phenyl)pyrimidin-2-yl)amino)cyclohexane-1-carboxamide], under 0.5 µM; in that of `O=C1CCC(Nc2ccc(N3CCN(C[C@H]4CC[C@H](CNC(=O)[C@H]5CC[C@H](Nc6ncc(F)c(-c7cccc(N8CCCOC8=O)c7)n6)CC5)CC4)CC3)c(F)c2)C(=O)N1` (stereo partly drawn) [Compound 591, trans-(1r,4R)—N-(((1r,4R)-4-((4-(4-((2,6-dioxopiperidin-3-yl)amino)-2-fluorophenyl)piperazin-1-yl)methyl)cyclohexyl)methyl)-4-((5-fluoro-4-(3-(2-oxo-1,3-oxazinan-3-yl)phenyl)pyrimidin-2-yl)amino)cyclohexane-1-carboxamide], under 0.5 µM.

The same assay, now with this note: read-out: HiBIT-degradation MOLT4 PIP4k2C DC50 (6 hours, marked *); 6 hours of incubation time, rather than 24 hours; MOLT-4, top concentration 10 micromolar.
As to `O=C1CCC(Nc2ccc(N3CCN(C[C@H]4CC[C@H](CNC(=O)[C@H]5CC[C@H](Nc6ncc(F)c(-c7cccc(N8CCOCC8=O)c7)n6)CC5)CC4)CC3)c(F)c2)C(=O)N1` (stereo partly drawn) [Compound 586, trans-(1r,4R)—N-(((1r,4R)-4-((4-(4-((2,6-dioxopiperidin-3-yl)amino)-2-fluorophenyl)piperazin-1-yl)methyl)cyclohexyl)methyl)-4-((5-fluoro-4-(3-(3-oxomorpholino)phenyl)pyrimidin-2-yl)amino)cyclohexane-1-carboxamide], the DC50 is under 0.5 µM.
